15 compounds from patent US20250213701A1, “MEDICAMENT FOR TREATING HUMAN TUMOR BASED ON ERF3A-TARGETING PROTEOLYSIS MECHANISM” (SUZHOU DEGEN BIO-MEDICAL CO., LTD., priority 2022, published 2025) can be followed below.

Some results are limits rather than exact numbers.

Common to all, as to assay type: cell-based, human
Assay [1] concerns VCaP cells. The experiment in a line: Anti-proliferative toxicity against prostate cancer cell line Vcap (CCK8). Particulars: 3 days; for IC50: CCK8. The method, boiled down: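 VCaP cells (DMEM, 10% FBS) seeded 20000 cells/well, cultured 72 h, then exposed in triplicate to compound at final well concentrations of 0.00001–0.16 μM for 3 days at 37 °C, 5% CO2. Viability by CCK8, 1–4 h at 37 °C, absorbance at 450 nm.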

The test system of assay [2] is 22Rv1 cells. The experiment in a line: Anti-proliferative toxicity against prostate cancer cell line 22Rv1 (CCK8). Particulars: 3 days; for IC50: CCK8. The procedure, abridged: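 22Rv1 cells pre-cultured for 48 h, then exposed to compounds at 0.00001-1.0 μM final, in triplicate, for 3 days. Viability read by CCK8 absorbance at 450 nm after 1-4 h at 37 °C.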
Assay [3] relates to PC-3 cells. The experiment in a line: Anti-proliferative toxicity against prostate cancer cell line PC-3 (CCK8). Particulars: 3 days. The procedure, abridged: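 PC-3 cells (4000/well, pre-cultured 24 h) exposed in triplicate to compound at final 0.00001-1.0 μM for 3 days at 37 °C, 5% CO2. Viability read by CCK8, 1-4 h at 37 °C, absorbance at 450 nm.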

As for `C[C@]12C=CC(=O)N[C@@H]1CC[C@@H]1[C@@H]2CC[C@]2(C)[C@@H](C(=O)Nc3cccc(NCCNc4cccc5c4C(=O)N(C4CCC(=O)NC4=O)C5=O)c3)CC[C@@H]12` (stereo partly drawn) [C56, N-(3-((2-((4-(2-(3-(2,6-dioxopiperidine))-isoindole-1,3-dione))amino)ethyl)amino)phenyl)-3-oxo-4-aza-5α-androst-1-ene-17β-carboxamide], the half-inhibitory concentration (IC50) in assay [1] (Homo sapiens, 72 h) is above 1000 nM; in assay [2] (Homo sapiens, 72 h), above 1000 nM; in assay [3] (Homo sapiens, 72 h), above 1000 nM.
Take `C[C@]12C=CC(=O)N[C@@H]1CC[C@@H]1[C@@H]2CC[C@]2(C)[C@@H](C(=O)Nc3ccc(Cl)c(OCCCNc4cccc5c4C(=O)N(C4CCC(=O)NC4=O)C5=O)c3)CC[C@@H]12` (stereo partly drawn) [C51, N-(3-((3-((4-(2-(3-(2,6-dioxopiperidine))-isoindole-1,3-dione))amino)propyl)oxy)-4-chloro-phenyl)-3-oxo-4-aza-5α-androst-1-ene-17β-carboxamide]: the IC50 in assay [1] (Homo sapiens, 72 h) was above 1000 nM; in assay [2] (Homo sapiens, 72 h), above 1000 nM; in assay [3] (Homo sapiens, 72 h), above 1000 nM.
`C[C@]12CCC(=O)N[C@@H]1CC[C@@H]1[C@@H]2CC[C@]2(C)[C@@H](C(=O)Nc3cccc(N[C@@H]4CCC[C@@H](Nc5cccc6c5C(=O)N(C5CCC(=O)NC5=O)C6=O)C4)c3)CC[C@@H]12` (stereo partly drawn) [C81, N-(3-(N—(N-(4-(2-(3-(2,6-dioxopiperidine))-isoindole-1,3-dione))-1R,3R-cyclohexanediamine))phenyl)-3-oxo-4-aza-5α-androstane-17β-carboxamide]: the IC50 lay within 0.1 to 10 nM in assay [1], 0.1 to 10 nM in assay [2] and 10 to 1000 nM in assay [3].
Take `C[C@]12C=CC(=O)N[C@@H]1CC[C@@H]1[C@@H]2CC[C@]2(C)[C@@H](C(=O)NCCCCCCNc3ccc4c(c3)C(=O)N(C3CCC(=O)NC3=O)C4=O)CC[C@@H]12` (stereo partly drawn) [C10, N-(6-((5-(2-(3-(2,6-dioxopiperidine))-isoindole-1,3-dione))amino)hexyl)-3-oxo-4-aza-5α-androst-1-ene-17β-carboxamide]: the IC50 in assay [1] (Homo sapiens, 72 h) was above 1000 nM; in assay [2] (Homo sapiens, 72 h) it was above 1000 nM; in assay [3] (Homo sapiens, 72 h), above 1000 nM.
Regarding `C[C@]12C=CC(=O)N[C@@H]1CC[C@@H]1[C@@H]2CC[C@]2(C)[C@@H](C(=O)NCCCCCCCNc3ccc4c(c3)C(=O)N(C3CCC(=O)NC3=O)C4=O)CC[C@@H]12` (stereo partly drawn) [C12, N-(7-((5-(2-(3-(2,6-dioxopiperidine))-isoindole-1,3-dione))amino)heptyl)-3-oxo-4-aza-5α-androst-1-ene-17β-carboxamide], the IC50 was above 1000 nM in assay [1] (Homo sapiens, 72 h); above 1000 nM in assay [2] (Homo sapiens, 72 h); above 1000 nM in assay [3] (Homo sapiens, 72 h).
Turning to `C[C@]12C=CC(=O)N[C@@H]1CC[C@@H]1[C@@H]2CC[C@]2(C)[C@@H](C(=O)NCCCCCCCNc3cccc4c3C(=O)N(C3CCC(=O)NC3=O)C4=O)CC[C@@H]12` (stereo partly drawn) [C11, N-(7-((4-(2-(3-(2,6-dioxopiperidine))-isoindole-1,3-dione))amino)heptyl)-3-oxo-4-aza-5α-androst-1-ene-17β-carboxamide], the IC50 in assay [1] (Homo sapiens, 72 h) was above 1000 nM; in assay [2] (Homo sapiens, 72 h) it was above 1000 nM; in assay [3] (Homo sapiens, 72 h), above 1000 nM.
On to `C[C@]12C=CC(=O)N[C@@H]1CC[C@@H]1[C@@H]2CC[C@]2(C)[C@@H](C(=O)Nc3cccc(OCCNc4ccc5c(c4)C(=O)N(C4CCC(=O)NC4=O)C5=O)c3)CC[C@@H]12` (stereo partly drawn) [C28, N-(3-((2-((5-(2-(3-(2,6-dioxopiperidine))-isoindole-1,3-dione))amino)ethyl)oxy)phenyl)-3-oxo-4-aza-5α-androst-1-ene-17β-carboxamide], for which the IC50 in assay [1] (Homo sapiens, 72 h) is above 1000 nM; in assay [2] (Homo sapiens, 72 h), above 1000 nM; in assay [3] (Homo sapiens, 72 h) it was above 1000 nM.
In the case of `C[C@]12C=CC(=O)N[C@@H]1CC[C@@H]1[C@@H]2CC[C@]2(C)[C@@H](C(=O)Nc3cccc(N[C@@H]4CCC[C@@H](Nc5cccc6c5CN([C@H]5CCC(=O)NC5=O)C6=O)C4)c3)CC[C@@H]12` [C65, N-(3-(N—(N-(4-(2-(3S-(2,6-dioxopiperidine))-1-oxo-2,3-dihydro-1H-isoindol))-1R,3R-cyclohexanediamine))phenyl)-3-oxo-4-aza-5α-androst-1-ene-17β-carboxamide], the IC50 in assay [1] (Homo sapiens, 72 h) was 10 to 1000 nM; in assay [2] (Homo sapiens, 72 h), 10 to 1000 nM; in assay [3] (Homo sapiens, 72 h) it was above 1000 nM.
Turning to “N-(3-(N—(N-(4-(2-(3-(2,6-dioxopiperidine))-isoindole-1,3-dione))-(1R,4S)-bicyclo[2,2,2]octane-2R,6R-diamine))phenyl)-3-oxo-4-aza-5α-androst-1-ene-17β-carboxamide and N-(3-(N—(N-(4-(2-(3-(2,6-dioxopiperidine))-isoindole-1,3-dione))-(1S,4R)-bicyclo[2,2,2]octane-2R,6R-diamine))phenyl)-3-oxo-4-aza-5α-androst-1-ene-17β-carboxamide [C72]”, the half-maximal inhibitory concentration (IC50) in assay [1] was 10 to 1000 nM; in assay [2] it was 10 to 1000 nM; in assay [3] it was above 1000 nM.
In the case of `C[C@]12C=CC(=O)N[C@@H]1CC[C@@H]1[C@@H]2CC[C@]2(C)[C@@H](C(=O)Nc3cccc(NCCCNc4cccc5c4C(=O)N(C4CCC(=O)NC4=O)C5=O)c3)CC[C@@H]12` (stereo partly drawn) [C50, N-(3-((3-((4-(2-(3-(2,6-dioxopiperidine))-isoindole-1,3-dione))amino)propyl)amino)phenyl)-3-oxo-4-aza-5α-androst-1-ene-17β-carboxamide], the “Anti-proliferative toxicity data in VCaP cells” value in assay [1] (0.00005 μM) was determined as 1.2%; in assay [1] (0.00010 μM), 22.8%; in assay [1] (0.00030 μM), 72.3%; in assay [1] (0.00100 μM), 86.6%; in assay [1] (0.00300 μM), 90.5%; in assay [1] (0.00600 μM), 90.7%. The figures for the “Anti-proliferative toxicity data in VCaP cells” value in assay [1] (0.03200 μM) and in assay [1] (0.16000 μM) were 91.5% and 91.7%, respectively. For the same compound, the IC50 was in the range of 0.1 to 10 nM in assay [1] (Homo sapiens, 72 h); 0.1 to 10 nM in assay [2] (Homo sapiens, 72 h); 10 to 1000 nM in assay [3] (Homo sapiens, 72 h). For the same compound, the “Anti-proliferative toxicity data in 22Rv1 cells” value is given as 6.6% in assay [2] (0.00006 μM); 45.2% in assay [2] (0.00032 μM); 78.4% in assay [2] (0.00160 μM); 80.7% in assay [2] (0.00800 μM); 75.0% in assay [2] (0.04000 μM); 80.6% in assay [2] (0.20000 μM). Also, in assay [2] (1.00000 μM), the “Anti-proliferative toxicity data in 22Rv1 cells” value was 81.5%.
In the case of `C[C@]12C=CC(=O)N[C@@H]1CC[C@@H]1[C@@H]2CC[C@]2(C)[C@@H](C(=O)Nc3cccc(N4CCC(CN5CCN(c6ccc7c(c6)C(=O)N(C6CCC(=O)NC6=O)C7=O)CC5)CC4)c3)CC[C@@H]12` (stereo partly drawn) [C45, 1-(4-(1-(3-(3-oxo-4-aza-5α-androst-1-ene-17β-carboxamido)phenyl)piperidine)methyl)-4-(5-(2-(3-(2,6-dioxopiperidine))-isoindole-1,3-dione))piperazine], the IC50 in assay [1] (Homo sapiens, 72 h) is above 1000 nM; in assay [2] (Homo sapiens, 72 h) it was above 1000 nM; in assay [3] (Homo sapiens, 72 h), above 1000 nM.
`C[C@]12C=CC(=O)N[C@@H]1CC[C@@H]1[C@@H]2CC[C@]2(C)[C@@H](C(=O)Nc3cccc(N[C@@H]4CNC[C@@H](Nc5cccc6c5C(=O)N(C5CCC(=O)NC5=O)C6=O)C4)c3)CC[C@@H]12` (stereo partly drawn) [C76, N-(3-(N—(N-(4-(2-(3-(2,6-dioxopiperidine))-isoindole-1,3-dione))-piperidine-3S,5S-diamine))phenyl)-3-oxo-4-aza-5α-androst-1-ene-17β-carboxamide]: the IC50 in assay [1] (Homo sapiens, 72 h) was 10 to 1000 nM; in assay [2] (Homo sapiens, 72 h), 10 to 1000 nM; in assay [3] (Homo sapiens, 72 h) it was 10 to 1000 nM.
`C[C@]12C=CC(=O)N[C@@H]1CC[C@@H]1[C@@H]2CC[C@]2(C)[C@@H](C(=O)NCCCCCCNc3cccc4c3C(=O)N(C3CCC(=O)NC3=O)C4=O)CC[C@@H]12` (stereo partly drawn) [C9, N-(6-((4-(2-(3-(2,6-dioxopiperidine))-isoindole-1,3-dione))amino)hexyl)-3-oxo-4-aza-5α-androst-1-ene-17β-carboxamide]: the IC50 in assay [1] (Homo sapiens, 72 h) is above 1000 nM; in assay [2] (Homo sapiens, 72 h), above 1000 nM; in assay [3] (Homo sapiens, 72 h), above 1000 nM.
For the compound `C[C@]12C=CC(=O)N[C@@H]1CC[C@@H]1[C@@H]2CC[C@]2(C)[C@@H](C(=O)Nc3ccc(OCCNc4ccc5c(c4)C(=O)N(C4CCC(=O)NC4=O)C5=O)nc3)CC[C@@H]12` (stereo partly drawn) [C47, N-(5-(2-((2-((5-(2-(3-(2,6-dioxopiperidine))-isoindole-1,3-dione))amino)ethyl)oxy)pyridine))-3-oxo-4-aza-5α-androst-1-ene-17β-carboxamide], the concentration for half-maximal inhibition (IC50) was 10 to 1000 nM in assay [1] (Homo sapiens, 72 h); 10 to 1000 nM in assay [2] (Homo sapiens, 72 h); above 1000 nM in assay [3] (Homo sapiens, 72 h).
Consider `C[C@]12C=CC(=O)N[C@@H]1CC[C@@H]1[C@@H]2CC[C@]2(C)[C@@H](C(=O)Nc3cc(Cl)cc(OCCCNc4cccc5c4C(=O)N(C4CCC(=O)NC4=O)C5=O)c3)CC[C@@H]12` (stereo partly drawn) [C55, N-(3-((3-((4-(2-(3-(2,6-dioxopiperidine))-isoindole-1,3-dione))amino)propyl)oxy)-5-chloro-phenyl)-3-oxo-4-aza-5α-androst-1-ene-17β-carboxamide], for which the IC50 is 10 to 1000 nM in assay [1] (Homo sapiens, 72 h); 10 to 1000 nM in assay [2] (Homo sapiens, 72 h); above 1000 nM in assay [3] (Homo sapiens, 72 h).
